Data taken from patent publication US20210187128A1, “COLOR CHANGING SILK PATCH FOR VISIBLE ROS DETECTION” (University of Central Florida Research Foundation, Inc., priority 2019, published 2021).

What was measured:
[1] = cited from earlier work
[2] = test system: human skin keratinocyte (HaCat) cells; experiment: In vitro cellular biocompatibility of Amplex Red by MTT assay; assay type: cell-based; settings: for cellular viability: highest concentration of 388 μM, beyond 80% considered biocompatible
Procedure: Amplex Red compound was tested for in vitro cellular toxicity analysis against the human skin keratinocyte (HaCat) cells (purchased from ATCC, USA) using cell culture-based MTT assay. Herein, 10,000 cells were grown overnight into a 96 well plate using DMEM:F12 cell culture media. Different concentrations of Amplex red compound were prepared using incomplete cell culture media and incubated with HaCat cells for a time period of 24 hours and 48 hours respectively. Post incubation time period, MTT analysis was performed using the standard protocol described in Singh 2018, herein incorporated by reference into this disclosure in its entirety. (S. (Singh, A. Ly, S. Das, T. S. Sakthivel, S. Barkam and S. Seal, Artif. Cells, Nanomed., Biotechnol., 2018, 1-8). MTT assay compound (Thiazyolyl blue tetrazolium bromide) was then added for measuring the cellular viability, and absorbance was recorded for treated samples in comparison to control samples (HaCat cells only) and data analysis was performed.

Structure (SMILES): CC(=O)N1c2ccc(O)cc2Oc2cc(O)ccc21 [Amplex Red]
- detection limit for H2O2 in solutions ([1]; in solutions): 10 picomolar
- amount of H2O2 detected (limit of detection) ([1]; with HRP, 100 μL volume): 10 picomoles
- toxicity to the cells [2]: completely non-toxic
- concentration found to be highly biocompatible ([2]; 24 hours): up to 388 μM
- cellular viability ([2]; 24 hours): > 80%
- concentration found to be highly biocompatible ([2]; 48 hours): up to 388 μM
- cellular viability ([2]; 48 hours): > 80%
